Assay results from patent US20040132707A1, “Catecholate beta-lactam conjugates, method for producing the same and the use thereof” (Gruenenthal GmbH, priority 2001, published 2004).
In brackets after ≈: the same amount, converted by molar mass.

Legend:
Assay in all cases: Microdilution MIC assay (NCCLS M7-A)
Type in all cases: cell-based
[1] = test system: Stenotrophomonas maltophilia GN 12873; conditions: strain GN12873; for MIC: Stenotrophomonas maltophilia, read-out: MIC Stenotroph. maltoph. GN12873
Protocol: (§1) The antibacterial activity was tested by a microdilution assay according to National Committee for Clinical Laboratory Standards, 1998, Methods for dilution antimicrobial susceptibility tests for bacteria that grow aerobically, Approved standard M7-A, NCCLS, Villanova, Pa.
(§2) The minimal inhibition concentrations (MICs) were determined for the following bacterial strains: The Gram-negative strains Pseudomonas aeruginosa SG 137, ATCC 27853, Escherichia coli ATCC 25922, Klebsiella pneumoniae ATCC 10031, Stenotrophomonas maltophilia GN 12873, Serratia marcescens SG 621 as well as for the Gram-positive strain Staphylococcus aureus SG 511.

[2] = test system: Serratia marcescens SG 621; conditions: strain SG621; for MIC: Serratia marcescens, read-out: MIC Serratia marc. SG621
Protocol: as §1, §2

[3] = test system: Staphylococcus aureus SG 511; conditions: strain SG511; for MIC: Staphylococcus aureus, read-out: MIC Staph. aureus SG511
Protocol: as §1, §2

[4] = test system: Pseudomonas aeruginosa ATCC 27853; conditions: strain ATCC 27853; for MIC: Pseudomonas aeruginosa, ATCC27853
Protocol: as §1, §2

[5] = test system: Escherichia coli ATCC 25922; conditions: strain ATCC 25922; for MIC: Escherichia coli, ATCC25922, read-out: MIC E. coli ATCC 25922
Protocol: as §1, §2

[6] = test system: Klebsiella pneumoniae ATCC 10031; conditions: strain ATCC10031; for MIC: Klebsiella pneumoniae
Protocol: as §1, §2

[7] = test system: Pseudomonas aeruginosa SG 137; conditions: strain SG137; for MIC: Pseudomonas aeruginosa
Protocol: as §1, §2

Row | MIC [1] [µg/mL] | MIC [2] [µg/mL] | MIC [3] [µg/mL] | MIC [4] [µg/mL] | MIC [5] [µg/mL] | MIC [6] [µg/mL] | MIC [7] [µg/mL] | SMILES | MIC Stenotroph. maltoph. GN12873 [1] [µg/mL] | MIC Serratia marc. SG621 [2] [µg/mL] | MIC Staph. aureus SG511 [3] [µg/mL] | MIC Pseudomonas aeruginosa ATCC 27853 [4] [µg/mL] | MIC E. coli ATCC 25922 [5] [µg/mL] | MIC Klebsiella pneumoniae ATCC10031 [6] [µg/mL] | MIC Pseudomonas aeruginosa SG137 [7] [µg/mL]
1 | – | – | – | – | – | – | – | CC(=O)Oc1cccc(C(=O)NCCN(CCNC(=O)c2cccc(OC(C)=O)c2OC(C)=O)CCN(Cc2ccc(C(=O)NC(C(=O)NC3C(=O)N4C3SC(C)(C)C4C(=O)O)c3ccccc3)cc2)C(=O)c2cccc(OC(C)=O)c2OC(C)=O)c1OC(C)=O (stereo not drawn) [Example 15] | <0.05 | 0.4 (≈ 0.314 µM) | 0.78 (≈ 0.613 µM) | 0.2 (≈ 0.157 µM) | 0.78 (≈ 0.613 µM) | 0.1 (≈ 0.0786 µM) | <0.05
2 | – | – | – | – | – | – | – | COC(=O)Oc1cccc(C(=O)N(C)CCCN(Cc2ccc(C(=O)NC(C(=O)NC3C(=O)N4C3SC(C)(C)C4C(=O)O)c3ccccc3)cc2)C(=O)c2cccc(OC(=O)OC)c2OC(=O)OC)c1OC(=O)OC (stereo not drawn) [Example 16, N-{4-[2,6-bis-(2,3-di-methoxycarbonyloxybenzoyl)-2,6-diaza-heptyl]-benzoyl}-ampicillin] | <0.05 | 1.56 (≈ 1.47 µM) | 1.56 (≈ 1.47 µM) | 0.78 (≈ 0.737 µM) | 0.4 (≈ 0.378 µM) | 0.1 (≈ 0.0945 µM) | <0.05
3 | – | – | – | – | – | – | – | CC(=O)Oc1cccc(C(=O)NCCCCN(Cc2ccc(OCC(=O)NC(C(=O)NC3C(=O)N4C3SC(C)(C)C4C(=O)O)c3ccccc3)cc2)C(=O)c2cccc(OC(C)=O)c2OC(C)=O)c1OC(C)=O (stereo not drawn) [Example 17, N-{4-[2,7-Bis-(2,3-diacetoxybenzoyl)-2,7-diaza-heptyl]-phenoxyacetyl}-ampicillin] | 0.2 (≈ 0.195 µM) | 6.25 (≈ 6.1 µM) | 1.56 (≈ 1.52 µM) | 6.25 (≈ 6.1 µM) | 0.78 (≈ 0.762 µM) | <0.05 | 0.2 (≈ 0.195 µM)
4 | – | – | – | – | – | – | – | CC(=O)Oc1cccc(C(=O)NCCCCN(Cc2ccccc2C(=O)NC(C(=O)NC2C(=O)N3C2SC(C)(C)C3C(=O)O)c2ccccc2)C(=O)c2cccc(OC(C)=O)c2OC(C)=O)c1OC(C)=O (stereo not drawn) [Example 18, N-{2-[2,7-Bis-(2,3-diacetoxybenzoyl)-2,7-diaza-heptyl]-benzooyl}-ampicillin] | <0.05 | 0.24 (≈ 0.241 µM) | 6.25 (≈ 6.29 µM) | 0.2 (≈ 0.201 µM) | 0.4 (≈ 0.402 µM) | <0.05 | 0.04 (≈ 0.0402 µM)
5 | – | – | – | – | – | – | – | CC(=O)Oc1cccc(C(=O)N(C)CCCN(Cc2ccccc2C(=O)N[C@@H](C(=O)N[C@@H]2C(=O)N3[C@@H]2SC(C)(C)[C@@H]3C(=O)O)c2ccccc2)C(=O)c2cccc(OC(C)=O)c2OC(C)=O)c1OC(C)=O [Example 19, N-{2-[2,6-Bis-(2,3-diacetoxybenzoyl)-2,6-diaza-heptyl]-benzoyl}-ampicillin] | 0.2 (≈ 0.201 µM) | 0.78 (≈ 0.785 µM) | 1.56 (≈ 1.57 µM) | 3.12 (≈ 3.14 µM) | 0.78 (≈ 0.785 µM) | 0.1 (≈ 0.101 µM) | 0.1 (≈ 0.101 µM)
6 | – | – | – | – | – | – | – | CC(=O)Oc1cccc(C(=O)NCCCN(CCN(CCCN(Cc2ccc(C(=O)N[C@@H](C(=O)N[C@@H]3C(=O)N4[C@@H]3SC(C)(C)[C@@H]4C(=O)O)c3ccccc3)cc2)C(=O)c2cccc(OC(C)=O)c2OC(C)=O)C(=O)c2cccc(OC(C)=O)c2OC(C)=O)C(=O)c2cccc(OC(C)=O)c2OC(C)=O)c1OC(C)=O [Example 20, N-{4-[2,6,9,13-Tetrakis-(2,3-diacetoxybenzoyl)-2,6,9,13-tetraaza-tridecyl]-benzoyl}-ampicillin] | 0.2 (≈ 0.132 µM) | 1.56 (≈ 1.03 µM) | 6.25 (≈ 4.11 µM) | 1.56 (≈ 1.03 µM) | 1.56 (≈ 1.03 µM) | 0.78 (≈ 0.513 µM) | 0.4 (≈ 0.263 µM)
7 | – | – | – | – | – | – | – | COc1ccc(CN(CCCCNC(=O)c2cccc(OC(C)=O)c2OC(C)=O)C(=O)c2cccc(OC(C)=O)c2OC(C)=O)c(C(=O)N[C@@H](C(=O)N[C@@H]2C(=O)N3[C@@H]2SC(C)(C)[C@@H]3C(=O)O)c2ccccc2)c1OC [Example 21, N-{6-[2,7-Bis-(2,3-Diacetoxybenzoyl)-2,7-diaza-heptyl]-2,3-dimethoxy-benzoyl}-ampicillin] | 0.2 (≈ 0.19 µM) | 1.56 (≈ 1.48 µM) | 0.2 (≈ 0.19 µM) | 12.5 (≈ 11.9 µM) | 3.12 (≈ 2.96 µM) | 0.4 (≈ 0.379 µM) | 0.78 (≈ 0.74 µM)
8 | – | – | – | – | – | – | – | COC(=O)Oc1cccc(C(=O)N(C)CCCN(Cc2ccccc2C(=O)N[C@@H](C(=O)N[C@@H]2C(=O)N3[C@@H]2SC(C)(C)[C@@H]3C(=O)O)c2ccccc2)C(=O)c2cccc(OC(=O)OC)c2OC(=O)OC)c1OC(=O)OC [Example 22, N-{2-[2,6-Bis-(2,3-di-methoxycarbonyloxy-benzoyl)-2,6-diaza-heptyl]-benzoyl}-ampicillin] | <0.05 | 0.78 (≈ 0.737 µM) | 6.25 (≈ 5.91 µM) | 0.4 (≈ 0.378 µM) | 1.56 (≈ 1.47 µM) | 0.4 (≈ 0.378 µM) | 0.2 (≈ 0.189 µM)
9 | – | – | – | – | – | – | – | CC(=O)Oc1cccc(C(=O)NCCCN(CCCN(Cc2ccccc2C(=O)N[C@@H](C(=O)N[C@@H]2C(=O)N3[C@@H]2SC(C)(C)[C@@H]3C(=O)O)c2ccccc2)C(=O)c2cccc(OC(C)=O)c2OC(C)=O)C(=O)c2cccc(OC(C)=O)c2OC(C)=O)c1OC(C)=O [Example 23, N-{2-[2,6,10-Tris-(2,3-diacetoxybenzoyl)-2,6,10-triaza-decyl]-benzoyl}-ampicillin] | 0.2 (≈ 0.159 µM) | 3.12 (≈ 2.48 µM) | 12.5 (≈ 9.94 µM) | 1.56 (≈ 1.24 µM) | 6.25 (≈ 4.97 µM) | 0.78 (≈ 0.62 µM) | 0.78 (≈ 0.62 µM)
10 | – | – | – | – | – | – | – | CC(=O)Oc1cccc(C(=O)NCCCN(CC(=O)NC(C(=O)NC2C(=O)N3C2SC(C)(C)C3C(=O)O)c2ccccc2)C(=O)c2cccc(OC(C)=O)c2OC(C)=O)c1OC(C)=O (stereo not drawn) [Example 24, N-[3,7-Bis-(2,3-diacetoxybenzoyl)-3,7-diaza-heptanoyl]-ampicillin] | 0.2 (≈ 0.221 µM) | 0.78 (≈ 0.863 µM) | 3.12 (≈ 3.45 µM) | 3.12 (≈ 3.45 µM) | 3.12 (≈ 3.45 µM) | 0.2 (≈ 0.221 µM) | 3.12 (≈ 3.45 µM)
11 | – | – | – | – | – | – | – | CC(=O)Oc1cccc(C(=O)NCCCCCN(CC(=O)NC(C(=O)NC2C(=O)N3C2SC(C)(C)C3C(=O)O)c2ccccc2)C(=O)c2cccc(OC(C)=O)c2OC(C)=O)c1OC(C)=O (stereo not drawn) [Example 25, N-[3,9-Bis-(2,3-diacetoxybenzoyl)-3,9-diaza-nonanoyl]-ampicillin] | 0.02 (≈ 0.0215 µM) | 0.04 (≈ 0.0429 µM) | 2.5 (≈ 2.68 µM) | 0.16 (≈ 0.172 µM) | 0.16 (≈ 0.172 µM) | <0.005 | 0.04 (≈ 0.0429 µM)
12 | – | – | – | – | – | – | – | CC(=O)Oc1cccc(C(=O)NCCN(CC(=O)N[C@@H](C(=O)N[C@@H]2C(=O)N3[C@@H]2SC(C)(C)[C@@H]3C(=O)O)c2ccccc2)C(=O)c2cccc(OC(C)=O)c2OC(C)=O)c1OC(C)=O [Example 26, N-[3,6-Bis-(2,3-diacetoxybenzoyl)-3,6-diaza-hexanoyl]-ampicillin] | 0.78 (≈ 0.877 µM) | 0.78 (≈ 0.877 µM) | 3.12 (≈ 3.51 µM) | 0.78 (≈ 0.877 µM) | 0.78 (≈ 0.877 µM) | 0.1 (≈ 0.112 µM) | 0.4 (≈ 0.449 µM)
13 | > 100 | 25 (≈ 71.5 µM) | 0.4 (≈ 1.14 µM) | > 100 | 6.25 (≈ 17.9 µM) | 6.25 (≈ 17.9 µM) | > 100 | CC1(C)S[C@@H]2[C@H](NC(=O)[C@H](N)c3ccccc3)C(=O)N2[C@H]1C(=O)O [ampicillin, reference compound] | – | – | – | – | – | – | –
14 | 25 (≈ 54.2 µM) | 50 (≈ 108 µM) | 0.4 (≈ 0.867 µM) | 6.25 (≈ 13.5 µM) | 6.25 (≈ 13.5 µM) | 6.25 (≈ 13.5 µM) | 6.25 (≈ 13.5 µM) | CC1(C)S[C@@H]2[C@H](NC(=O)[C@H](NC(=O)N3CCNC3=O)c3ccccc3)C(=O)N2[C@H]1C(=O)O [azlocillin, reference compound] | – | – | – | – | – | – | –
15 | > 100 | 0.06 (≈ 0.156 µM) | 0.1 (≈ 0.261 µM) | 0.4 (≈ 1.04 µM) | 0.04 (≈ 0.104 µM) | 0.04 (≈ 0.104 µM) | 0.2 (≈ 0.522 µM) | C[C@@H](O)[C@H]1C(=O)N2C(C(=O)O)=C(S[C@@H]3CN[C@H](C(=O)N(C)C)C3)[C@H](C)[C@H]12 [meropenem, reference compound] | – | – | – | – | – | – | –
